Among the data in PubChem BioAssay (NCI) are GI50 and TGI values, retold here.

Molecules are shown by their SMILES. “And” between values parts separate entries of the source, which are not always exact repeats. Identical values can stand only once.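 Five concentrations, 48 hours, 96-well plates. Here, GI50 denotes the concentration required for 50% inhibition of growth. TGI denotes the concentration required for complete inhibition of growth.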 A value given as a limit tells only on which side of the number the result lay.

Test systems include PC-3 prostate; KM12 colon; M14 melanoma; HL-60(TB) leukemia; HCT-116 colon; MCF7 breast; SK-MEL-2 melanoma.
Common to all, as to experiment: growth of human tumour cells (NCI), 48 h

For `COC(=O)N[C@@H](C)CNc1nccc(-c2cn(C(C)C)nc2-c2cc(Cl)cc(NS(C)(=O)=O)c2F)n1`, the GI50 in the test with PC-3 prostate was over 100 µM; in the test on KM12 colon it was 70.1 µM; with M14 melanoma, under 0.01 µM; in the test with HL-60(TB) leukemia, 0.741 µM; with HCT-116 colon, 0.662 µM; with MCF7 breast it was 98.5 µM. Moreover, the TGI was over 100 µM in the test with PC-3 prostate; over 100 µM with KM12 colon; over 57.9 µM in the test with HL-60(TB) leukemia; over 100 µM with HCT-116 colon; over 100 µM with MCF7 breast.

For the compound `CCCCC[C@H]1C/C=C2/C(=O)C=C[C@@H]2C/C=C\CCCC(=O)O1`, the GI50 is 0.165 µM in the test on PC-3 prostate; 0.163 µM in the test on M14 melanoma; 0.114 µM in the test with SK-MEL-2 melanoma; 0.12 µM in the test with HL-60(TB) leukemia; 0.0905 µM in the test on HCT-116 colon; 0.0884 µM in the test with MCF7 breast. The TGI in the test with PC-3 prostate came to 0.844 µM; with M14 melanoma it was 5.1 µM; in the test with SK-MEL-2 melanoma, 0.296 µM; in the test on HL-60(TB) leukemia, 0.343 µM; in the test on HCT-116 colon it was 0.232 µM; with MCF7 breast it was 5.44 µM.

For `CC(C)C(Br)C(=O)NCC(=O)O` (configuration not stated), the TGI in the test with PC-3 prostate, in the test with KM12 colon, in the test with M14 melanoma, with SK-MEL-2 melanoma, in the test on HL-60(TB) leukemia and in the test with HCT-116 colon was over 100 µM throughout. In addition, the TGI with MCF7 breast was over 100 µM.

On to `CC(=O)c1nc(-c2ccc(C[C@@H](CNC(=O)CN(C)C)NC(=O)c3ccc(OC(C)C)c(Cl)c3)cc2)cn1C`, for which the GI50 with PC-3 prostate is 0.0652 µM; in the test on KM12 colon it was 0.0662 µM; in the test with M14 melanoma, 0.0317 µM; in the test with SK-MEL-2 melanoma, 0.061 µM; in the test on HL-60(TB) leukemia, 0.0223 µM; in the test on HCT-116 colon, 0.0393 µM. Further, the GI50 with MCF7 breast is 0.0398 µM. Also, the TGI in the test on PC-3 prostate was found to be 19.6 µM; in the test on KM12 colon, 21.1 µM; in the test on M14 melanoma it was 2.54 µM; with SK-MEL-2 melanoma, 15.5 µM; with HL-60(TB) leukemia it was 0.0719 µM; in the test with HCT-116 colon it was 13.1 µM. In the test on MCF7 breast, this compound returned a TGI of 14.4 µM.

`NC(=S)c1cccc(C2Nc3ccccc3O2)c1` (configuration not stated): the TGI in the test with PC-3 prostate, in the test with KM12 colon, in the test on M14 melanoma, with SK-MEL-2 melanoma, in the test on HL-60(TB) leukemia and in the test on HCT-116 colon was over 100 µM throughout. Moreover, the TGI in the test on MCF7 breast is over 100 µM.

Regarding `S=C(Nc1ccc(-c2nc3ccccc3s2)cc1)Nc1ccc(-c2nc3ccccc3s2)cc1`, the GI50 with PC-3 prostate is 26.8 µM; with KM12 colon, 20.1 µM; in the test with M14 melanoma, 21.6 µM; in the test on SK-MEL-2 melanoma it was 22.9 µM; in the test on HL-60(TB) leukemia, 35.7 µM; with HCT-116 colon it was 16.6 µM. The GI50 in the test on MCF7 breast is 25 µM. The TGI in the test on PC-3 prostate was over 100 µM; in the test on KM12 colon, over 100 µM; with M14 melanoma, 46.1 µM; with SK-MEL-2 melanoma, 45 µM; with HL-60(TB) leukemia it was over 100 µM; in the test on HCT-116 colon, 33.9 µM. Also, the TGI in the test with MCF7 breast is 59 µM.

Take `COc1c(OC2OC(C)C(O)C(O)C2O)c(OC)c2oc(-c3ccc(O)cc3)cc(=O)c2c1O` (configuration not stated): the GI50 in the test with PC-3 prostate was 34.8 µM; in the test on KM12 colon it was 39.7 µM; in the test with SK-MEL-2 melanoma, 47.4 µM; in the test on HCT-116 colon, 32.4 µM; with MCF7 breast, 34.4 µM. Moreover, the TGI with PC-3 prostate, in the test with KM12 colon, in the test on SK-MEL-2 melanoma, in the test with HCT-116 colon and in the test on MCF7 breast was over 100 µM in each case.

Regarding `Cc1cc(C)c(-c2c(O)c(Br)c(-c3c(C)cc(C)c(Br)c3C)c(O)c2Br)c(C)c1Br`, the GI50 in the test with PC-3 prostate was 1.88 µM; with KM12 colon it was 3.47 µM; in the test with M14 melanoma, 1.97 µM; in the test on SK-MEL-2 melanoma, 2 µM; in the test on HL-60(TB) leukemia, 1.68 µM; with HCT-116 colon, 2.13 µM. In the test on MCF7 breast, the GI50 was 2.38 µM. Besides, the TGI with PC-3 prostate is 8.76 µM; in the test on KM12 colon, 13.1 µM; in the test with M14 melanoma, 4.71 µM; in the test with SK-MEL-2 melanoma it was 6.2 µM; with HL-60(TB) leukemia it was 9.67 µM; in the test on HCT-116 colon, 5.53 µM. In the test on MCF7 breast, this compound had a TGI of 11.8 µM.

In the case of `CCOC(=O)/C=C/c1ccc([N+](=O)[O-])o1`, the GI50 in the test on PC-3 prostate is 11.8 µM; in the test on KM12 colon, 12.6 µM; in the test with M14 melanoma it was 2.71 µM; in the test with SK-MEL-2 melanoma it was 11.3 µM; with HL-60(TB) leukemia it was 2.38 µM; with HCT-116 colon, 1.62 µM. Moreover, the GI50 with MCF7 breast was 2.74 µM. Moreover, the TGI came out at 39.9 µM in the test on PC-3 prostate; 27.6 µM in the test on KM12 colon; 8.74 µM in the test on M14 melanoma; 36.8 µM in the test on SK-MEL-2 melanoma; 6.78 µM in the test on HL-60(TB) leukemia; 5.62 µM in the test with HCT-116 colon. In addition, the TGI with MCF7 breast was determined as 17.2 µM.

On to `CCCC(=O)Nc1cc(/C=C/C(=O)N2C[C@@H]3C[C@]34C2=CC(=O)c2[nH]cc(C)c24)n(C)c1`, for which the GI50 was 0.125 µM with PC-3 prostate; 0.0672 µM in the test with M14 melanoma; 0.151 µM with SK-MEL-2 melanoma; 0.03 µM in the test on HCT-116 colon; 0.0208 µM in the test on MCF7 breast. In addition, the TGI was 5.7 µM and 0.625 µM with PC-3 prostate; 2.6 µM in the test on KM12 colon; 1.55 µM and 0.22 µM in the test on M14 melanoma; 0.817 µM and 0.287 µM with SK-MEL-2 melanoma; 8.32 µM and 69.9 µM with HCT-116 colon.

Regarding `CCOC(=O)c1sc(NC(=O)COc2ccc(/C=C3\CCc4cc(OC)ccc4C3=O)cc2)nc1C`, the GI50 in the test with PC-3 prostate was 10.2 µM; in the test on KM12 colon, 7.13 µM; with M14 melanoma, 13.3 µM; with SK-MEL-2 melanoma, 5.61 µM; in the test with HL-60(TB) leukemia, 0.294 µM; in the test on HCT-116 colon, 12.9 µM. In addition, the GI50 in the test with MCF7 breast is 9.43 µM. The TGI with PC-3 prostate is over 57.3 µM; in the test on KM12 colon, 21.5 µM; in the test with M14 melanoma, 26.2 µM; in the test on SK-MEL-2 melanoma it was 21.6 µM; in the test on HL-60(TB) leukemia, 0.949 µM; in the test on HCT-116 colon, 25.6 µM. In addition, the TGI in the test with MCF7 breast came out at 23 µM.
